Source: patent US11253525B2, “Inhibitors of indoleamine 2,3-dioxygenase and methods of their use” (BRISTOL-MYERS SQUIBB COMPANY, priority 2018, dated 2022)
Like-named read-outs stand apart in the source and are kept apart here.

Assays:
[1] = target: T1, indoleamine 2,3-dioxygenase (IDO) (Homo sapiens, UniProt P14902); assay: HeLa cell-based indoleamine 2,3-dioxygenase (IDO) assay, kynurenine production; settings: HeLa cells, IFNγ 25 ng/mL, 48 hour incubation
T1 construct: replaced with media containing IFNγ (#285-IF/CF, R&D Systems) at a final concentration of 25 ng/mL; endogenous in cells; host or cells: HeLa (ATCC CCL-2), IFN-gamma stimulated

human IDO1 = target: T2, human IDO1 (Homo sapiens, UniProt P14902); assay: HEK293 cell-based indoleamine 2,3-dioxygenase (IDO) assay; settings: human IDO1/HEK293 cells, 20 hours
T2 construct: expressed in transfected cells
Protocol: Assessment of Inhibitor Activity in HEK293 Cell-Based Indoleamine 2,3-Dioxygenase (IDO) Assay
HEK293 cells were transfected with a pCDNA-based mammalian expression vector harboring human IDO1 cDNA (NM 002164.2) by electroporation. They were cultured in medium (DMEM with 10% FBS) containing 1 mg/ml G418 for two weeks. Clones of HEK293 cells that stably expressed human IDO1 protein were selected and expanded for IDO inhibition assay.
The human IDO1/HEK293 cells were seeded at 10,000 cells per 50 μL per well with RPMI/phenol red free media contains 10% FBS in a 384-well black wall clear bottom tissue culture plate (Matrix Technologies LLC) 100 nL of certain concentration of compound was then added to each well using ECHO liquid handling systems. The cells were incubated for 20 hours in 37° C. incubator with 5% CO2.
The compound treatments were stopped by adding trichloroacetic acid (Sigma-Aldrich) to a final concentration at 0.2%. The cell plate was further incubated at 50° C. for 30 minute. The equal volume supernatant (20 μL) and 0.2% (w/v) Ehrlich reagent (4-dimethylaminobenzaldehyde, Sigma-Aldrich) in glacial acetic acid were mixed in a new clear bottom 384-well plate. This plate was then incubated at room temperature for 30 minute. The absorbance at 490 nm was measured on Envision plate reader.
Compound IC50 values were calculated using the counts of 500 nM of a reference standard treatment as one hundred percent inhibition, and counts of no compound but DMSO treatment as zero percent inhibition.

[2] = read-out: IDO Hela IC50 class (A < 50, B < 250, C < 2000)
[3] = read-out: IDO1 HEK Human IC50 class (A < 50, B < 250, C < 2000)

T2 sequence (P14902 whole entry): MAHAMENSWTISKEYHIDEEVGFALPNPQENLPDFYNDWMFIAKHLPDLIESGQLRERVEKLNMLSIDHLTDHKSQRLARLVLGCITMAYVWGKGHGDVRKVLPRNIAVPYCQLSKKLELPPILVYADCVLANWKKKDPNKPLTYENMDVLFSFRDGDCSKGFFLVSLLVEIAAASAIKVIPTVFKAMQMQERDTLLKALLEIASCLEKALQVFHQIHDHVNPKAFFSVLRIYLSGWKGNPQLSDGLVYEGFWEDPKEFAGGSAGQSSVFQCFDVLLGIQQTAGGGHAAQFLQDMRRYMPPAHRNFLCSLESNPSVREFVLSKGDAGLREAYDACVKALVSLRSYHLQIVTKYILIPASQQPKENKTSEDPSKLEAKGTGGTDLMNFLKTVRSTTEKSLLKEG
T1 sequence (P14902 whole entry): as above

Row | SMILES | IC50 [1, 2] [nM] | IC50 (human IDO1; read-out: IDO1 HEK Human IC50) [nM] | IC50 ([1]; read-out: IDO Hela IC50) [nM] | IC50 (human IDO1; [3]) [nM]
1 | CCO[C@H](c1ccc(F)cc1)c1cc(Nc2ccc3nc(C)sc3c2)cc([C@@H](CC)CC(=O)O)c1 (single isomer, unassigned) [Example 117] |  |  |  | 250 to 2000
2 | CCOC(C)(C)c1ccc([C@@H](CC)CC(=O)O)cc1Nc1ccc(Cl)cc1 (single isomer, unassigned) [Example 5] |  | 95 |  | 
3 | CCOc1ncc(Nc2cc([C@@H](CC)CC(=O)O)ccc2C(C)(C)OCC)cn1 (single isomer, unassigned) [Example 6] |  |  |  | 250 to 2000
4 | CCOC(C)(C)c1ccc([C@@H](CC)CC(=O)O)cc1Nc1ccc2nc(C)sc2c1 (single isomer, unassigned) [Example 4] |  |  |  | 250 to 2000
5 | CCOC(C)(C)c1ccc(C(CC)CC(=O)O)cc1Nc1ccc2nc(C)sc2c1 (single isomer, unassigned) [Example 3] |  |  |  | 250 to 2000
6 | CCOC(C)(C)c1ccc([C@@H](CC)CC(=O)O)cc1NC(=O)Nc1ccc(C)cc1 (single isomer, unassigned) [Example 2] |  | 224 |  | 250 to 2000
7 | CCO[C@H](c1ccc(F)cc1)c1cc(Nc2ccc3nc(C)sc3c2)cc([C@H](CC)CC(=O)O)c1 (single isomer, unassigned) [Example 116] |  | 108 |  | 

Further compounds by falling IC50 (human IDO1; read-out: IDO1 HEK Human IC50), results first:

Row | IC50 [1, 2] [nM] | IC50 (human IDO1; read-out: IDO1 HEK Human IC50) [nM] | IC50 ([1]; read-out: IDO Hela IC50) [nM] | IC50 (human IDO1; [3]) [nM] | SMILES
8 |  | 23 | 20 |  | CCO[C@@H](c1ccc(F)cc1)c1cc(Nc2ccc3nc(C)sc3c2)cc([C@H](CC)CC(=O)O)c1 (single isomer, unassigned) [Example 114]
9 |  | 20 | 20 |  | CCO[C@H](c1ccc(F)cc1)c1cc(Nc2ccc(Cl)cc2)cc([C@H](CC)CC(=O)O)c1 (single isomer, unassigned) [Example 113-1]
10 |  | 10 | 10 |  | CC(C)CC(CC(C)C)c1ccc(-c2ccccc2-c2nn[nH]n2)cc1NC(=O)Nc1ccc(Cl)cc1F [Example 135, 1-(4-Chloro-2-fluorophenyl)-3-(4-(2,6-dimethylheptan-4-yl)-2′-(2H-tetrazol-5-yl)-[1,1′-biphenyl]-3-yl)urea]
11 |  | 7 | 30 |  | CCO[C@@H](c1ccc(F)cc1)c1cc(Nc2ccc(Cl)cc2)cc([C@@H](CC)CC(=O)O)c1 (single isomer, unassigned) [Example 112-2]
12 | < 50 | 4 |  |  | CC[C@@H](CC(=O)O)c1ccc(C(CC(C)C)CC(C)C)c(NC(=O)Nc2ccc(C)cc2)c1 [Example 137, (S)-3-(4-(2,6-Dimethylheptan-4-yl)-3-(3-(p-tolyl)ureido)phenyl)pentanoic Acid]
13 | < 50 | 2 |  |  | CCO[C@@H](c1ccc(F)cc1)c1cc(Nc2ccc(Cl)cc2)cc([C@H](CC)CC(=O)O)c1 (single isomer, unassigned) [Example 112-1]
14 | < 50 | 1 |  |  | CCO[C@@H](c1ccc([C@H](CC)CC(=O)O)cc1Nc1ccc(Cl)cc1)C(F)(F)F (stereo in doubt) [Example 34, (R)-3-(3-((4-chlorophenyl)amino)-4-((S)-1-ethoxy-2,2,2-trifluoroethyl)phenyl)pentanoic acid]
15 | < 50 | 1 |  |  | CCO[C@H](c1ccc([C@H](CC)CC(=O)O)cc1Nc1ccc(Cl)cc1)C(F)(F)F (single isomer, unassigned) [Example 11]
